Experimental data as given in patent publication US20260042764A1, “COMPOSITIONS AND METHODS FOR INHIBITION OF KRAS” (TheRas, Inc., priority 2022, published 2026).

What was measured:
[1] = molecular target: T1, Avi-KRAS WT (1-169) GppNHp/RAF1 RBD-3xFLAG (52-151) (Homo sapiens, UniProt P01116); assay: Raf1-KRAS WT-GppNHP disruption HTRF assay (Biological Example 1); assay type: binding
T1 construct: Avi-KRAS WT (1-169)
Summary of the method: (§1)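 Compounds were tested for disruption of KRAS–RAF1 RBD binding by HTRF in 50 mM Tris pH 7.5, 100 mM NaCl, 5 mM MgCl2, 0.1% BSA, 0.01% Tween, 10% DMSO. Protein mix was incubated 1 h at room temperature with shaking, then detection reagents added for another 1 h. Activity expressed as percent of DMSO control.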

SW620 cells (KRAS G12V) = assay: Cell-based pERK HTRF assay in SW620 cell (Biological Example 4); details: Homo sapiens, SW-620, SW620 (KRAS G12V) cells, pERK HTRF
Summary of the method: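 This assay measures inhibition of ERK phosphorylation downstream of KRAS G12V in intact SW620 cells. Compounds are applied for 4 h over nine half-log concentrations starting at 1 μM, and pERK is quantified by HTRF.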

[2] = molecular target: T2, Avi-KRAS G12D (1-169) GppNHp/RAF1 RBD-3xFLAG (52-151) (Homo sapiens, UniProt P01116, G12D); assay: Raf1-KRAS G12D-GppNHP disruption HTRF assay (Biological Example 1); assay type: binding
T2 construct: Avi-KRAS G12D (1-169)
Summary of the method: as §1

GP2d cells (KRAS G12D) = assay: Cell-based pERK HTRF assay in GP2d cell (Biological Example 2); details: GP2d, GP2d (KRAS G12D) cells, pERK HTRF
Summary of the method: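 Phospho-ERK in lysed cells was detected by HTRF using Eu cryptate and d2 antibodies, read between 4 and 24 h at room temperature. Prior to lysis, KRAS G12D GP2d cells, seeded the day before in DMEM with 10% FBS, were exposed to compounds for 60 min. Compounds were tested as 9-point half-log curves from 1 μM or 100 nM top, with 0.25% DMSO.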

[3] = molecular target: T3, Avi-KRAS G12R (1-169) GppNHp/RAF1 RBD-3xFLAG (52-151) (Homo sapiens, UniProt P01116, G12R); assay: Raf1-KRAS G12R-GppNHP disruption HTRF assay (Biological Example 1); assay type: binding
T3 construct: Avi-KRAS G12R (1-169)
Summary of the method: as §1

[4] = molecular target: T4, Avi-KRAS G12V (1-169) GppNHp/RAF1 RBD-3xFLAG (52-151) (Homo sapiens, UniProt P01116, G12V); assay: Raf1-KRAS G12V-GppNHP disruption HTRF assay (Biological Example 1); assay type: binding
T4 construct: Avi-KRAS G12V (1-169)
Summary of the method: as §1

[5] = KRAS WT, GppNHp-loaded, class symbols
[6] = KRAS G12D, GppNHp-loaded, class symbols
[7] = KRAS G12R, GppNHp-loaded, class symbols
[8] = KRAS G12V, GppNHp-loaded, class symbols

T3 sequence (P01116 1-169 isoform P01116-2 G12R): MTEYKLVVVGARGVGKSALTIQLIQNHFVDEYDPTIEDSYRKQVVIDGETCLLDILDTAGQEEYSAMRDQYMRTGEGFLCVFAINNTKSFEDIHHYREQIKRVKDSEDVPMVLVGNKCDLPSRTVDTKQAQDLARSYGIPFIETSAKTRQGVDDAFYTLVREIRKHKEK
T1 sequence (P01116 1-169 isoform P01116-2): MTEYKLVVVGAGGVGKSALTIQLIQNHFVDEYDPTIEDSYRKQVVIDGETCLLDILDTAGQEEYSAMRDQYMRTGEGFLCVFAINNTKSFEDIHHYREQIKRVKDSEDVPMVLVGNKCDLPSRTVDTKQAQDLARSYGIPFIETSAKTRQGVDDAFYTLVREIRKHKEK
T2 sequence (P01116 1-169 isoform P01116-2 G12D): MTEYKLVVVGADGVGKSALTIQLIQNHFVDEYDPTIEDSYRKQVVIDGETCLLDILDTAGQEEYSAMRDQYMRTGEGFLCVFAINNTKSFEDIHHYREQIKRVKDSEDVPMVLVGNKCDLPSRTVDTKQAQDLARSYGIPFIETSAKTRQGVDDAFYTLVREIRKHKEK
T4 sequence (P01116 1-169 isoform P01116-2 G12V): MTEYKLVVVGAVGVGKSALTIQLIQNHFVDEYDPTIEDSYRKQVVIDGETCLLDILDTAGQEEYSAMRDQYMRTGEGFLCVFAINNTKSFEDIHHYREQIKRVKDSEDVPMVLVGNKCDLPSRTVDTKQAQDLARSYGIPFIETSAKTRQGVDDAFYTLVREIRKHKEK

Q: Which IC50 ([1]; KRAS WT, GppNHp-loaded, Table 11) does the source give for `CN(c1nc(OC[C@@]23CCCN2C[C@H](F)C3)nc2c(F)c(-c3ccc(F)c4sc(N)c(C#N)c34)c(C(F)(F)F)cc12)C1CC(F)(F)C1` [Compound 162] here?
A: Its IC50 is 100 to 1000 nM.

Q: And the IC50 (SW620 cells (KRAS G12V))?
A: The IC50 was under 100 nM.

Q: What about the IC50 ([2]; KRAS G12D, GppNHp-loaded, Table 11) of the same compound?
A: Its IC50 is 100 to 1000 nM.

Q: What about the IC50 (GP2d cells (KRAS G12D)) of the same compound?
A: The IC50 was under 100 nM.

Q: And the IC50 ([3]; KRAS G12R, GppNHp-loaded, Table 11)?
A: Its IC50 is 100 to 1000 nM.

Q: What about the IC50 ([4]; KRAS G12V, GppNHp-loaded, Table 11) of the same compound?
A: Its IC50 is 1000 to 10000 nM.

Q: With `CC(=O)N1CCC2[C@H]1CCCN2c1nc(OC[C@@]23CCCN2C[C@H](F)C3)nc2c(F)c(-c3ccc(F)c4sc(N)c(C#N)c34)c(C(F)(F)F)cc12` (stereo partly drawn) [Compound 304] as the compound, how does the IC50 ([1]; KRAS WT-GppNHp/RAF1 RBD HTRF) read?
A: Its IC50 is 100 to 1000 nM.

Q: What about the IC50 (SW620 cells (KRAS G12V)) of the same compound?
A: Its IC50 is 100 to 1000 nM.

Q: What about the IC50 ([2]; KRAS G12D-GppNHp/RAF1 RBD HTRF) of the same compound?
A: Its IC50 is 1000 to 10000 nM.

Q: What about the IC50 (GP2d cells (KRAS G12D)) of the same compound?
A: Its IC50 is under 100 nM.

Q: What about the IC50 ([3]; KRAS G12R-GppNHp/RAF1 RBD HTRF) of the same compound?
A: The IC50 was 1000 to 10000 nM.

Q: What about the IC50 ([4]; KRAS G12V-GppNHp/RAF1 RBD HTRF) of the same compound?
A: Its IC50 is 1000 to 10000 nM.

Q: For `CCN(c1nc(OC[C@@]23CCCN2C[C@H](F)C3)nc2c(F)c(-c3ccc(F)c4sc(N)c(C#N)c34)c(C(F)(F)F)cc12)[C@H]1CCN(C(=O)[C@H]2C[C@H]2F)C1` (atropisomer, axis not shown) [Compound 750], which IC50 [1, 5] is on record?
A: Its IC50 is under 100 nM.

Q: And the IC50 (SW620 cells (KRAS G12V); class symbols)?
A: Its IC50 is under 100 nM.

Q: What about the IC50 [2, 6] of the same compound?
A: Its IC50 is under 100 nM.

Q: And the IC50 (GP2d cells (KRAS G12D); class symbols)?
A: The IC50 was under 100 nM.

Q: And the IC50 [3, 7]?
A: Its IC50 is under 100 nM.

Q: And the IC50 [4, 8]?
A: The IC50 was under 100 nM.

Q: Which IC50 [1, 5] does the source give for `CCN(c1nc(OC[C@@]23CCCN2C[C@H](F)C3)nc2c(F)c(-c3ccc(F)c4sc(N)c(C#N)c34)c(C(F)(F)F)cc12)[C@H]1CCN(C(=O)[C@@H](C)CF)C1` (atropisomer, axis not shown) [Compound 710] here?
A: The IC50 was under 100 nM.

Q: What about the IC50 (SW620 cells (KRAS G12V); class symbols) of the same compound?
A: Its IC50 is under 100 nM.

Q: And the IC50 [2, 6]?
A: Its IC50 is under 100 nM.

Q: And the IC50 (GP2d cells (KRAS G12D); class symbols)?
A: Its IC50 is under 100 nM.

Q: What about the IC50 [3, 7] of the same compound?
A: The IC50 was under 100 nM.

Q: What about the IC50 [4, 8] of the same compound?
A: The IC50 was 100 to 1000 nM.

Q: What does the source list for `[2H]C1([2H])OC(=O)N2C[C@@H](N(CC)c3nc(OC[C@@]45CCCN4C[C@H](F)C5)nc4c(F)c(-c5ccc(F)c6sc(N)c(C#N)c56)c(C(F)(F)F)cc34)C[C@H]21` (atropisomer, axis not shown) [Compound 760]?
A: IC50 [1, 5]: < 100 nM; IC50 (SW620 cells (KRAS G12V); class symbols): < 100 nM; IC50 [2, 6]: < 100 nM; IC50 (GP2d cells (KRAS G12D); class symbols): < 100 nM; IC50 [3, 7]: < 100 nM; IC50 [4, 8]: < 100 nM

Q: How did the IC50 ([1]; KRAS WT-GppNHp/RAF1 RBD HTRF) turn out when `N#Cc1c(N)sc2c(F)ccc(-c3c(C(F)(F)F)cc4c(N5CCn6cnnc6C5)nc(OC[C@@]56CCCN5C[C@H](F)C6)nc4c3F)c12` [Compound 294] was run?
A: Its IC50 is 100 to 1000 nM.

Q: What about the IC50 (SW620 cells (KRAS G12V)) of the same compound?
A: Its IC50 is 100 to 1000 nM.

Q: What about the IC50 ([2]; KRAS G12D-GppNHp/RAF1 RBD HTRF) of the same compound?
A: Its IC50 is 100 to 1000 nM.

Q: What about the IC50 (GP2d cells (KRAS G12D)) of the same compound?
A: Its IC50 is 100 to 1000 nM.

Q: And the IC50 ([3]; KRAS G12R-GppNHp/RAF1 RBD HTRF)?
A: Its IC50 is 100 to 1000 nM.

Q: And the IC50 ([4]; KRAS G12V-GppNHp/RAF1 RBD HTRF)?
A: The IC50 was 100 to 1000 nM.

Q: Which IC50 ([1]; KRAS WT-GppNHp/RAF1 RBD HTRF) does the source give for `CN1CCN(c2nc(OC[C@@]34CCCN3C[C@H](F)C4)nc3c(F)c(-c4ccc(F)c5sc(N)c(C#N)c45)c(C(F)(F)F)cc23)CCS1(=O)=O` [Compound 311] here?
A: Its IC50 is over 10000 nM.

Q: And the IC50 (SW620 cells (KRAS G12V))?
A: The IC50 was over 1000 nM.

Q: And the IC50 ([2]; KRAS G12D-GppNHp/RAF1 RBD HTRF)?
A: The IC50 was over 10000 nM.

Q: What about the IC50 (GP2d cells (KRAS G12D)) of the same compound?
A: The IC50 was over 1000 nM.

Q: And the IC50 ([3]; KRAS G12R-GppNHp/RAF1 RBD HTRF)?
A: Its IC50 is over 10000 nM.

Q: And the IC50 ([4]; KRAS G12V-GppNHp/RAF1 RBD HTRF)?
A: Its IC50 is over 10000 nM.

Q: For `CCN(c1nc(OC[C@@]23CCCN2C[C@H](F)C3)nc2c(F)c(-c3ccc(F)c4sc(N)c(C#N)c34)c(C(F)(F)F)cc12)[C@H]1CC(=O)N(C(C)C)C1` [Compound 528], which IC50 ([1]; KRAS WT-GppNHp/RAF1 RBD HTRF) is on record?
A: The IC50 was 1000 to 10000 nM.

Q: And the IC50 (SW620 cells (KRAS G12V))?
A: Its IC50 is 100 to 1000 nM.

Q: And the IC50 ([2]; KRAS G12D-GppNHp/RAF1 RBD HTRF)?
A: The IC50 was 1000 to 10000 nM.

Q: And the IC50 (GP2d cells (KRAS G12D))?
A: The IC50 was under 100 nM.

Q: What about the IC50 ([3]; KRAS G12R-GppNHp/RAF1 RBD HTRF) of the same compound?
A: Its IC50 is 1000 to 10000 nM.

Q: And the IC50 ([4]; KRAS G12V-GppNHp/RAF1 RBD HTRF)?
A: The IC50 was 1000 to 10000 nM.

Q: `CCN(c1nc(OC[C@@]23CCCN2C[C@H](F)C3)nc2c(F)c(-c3ccc(F)c4sc(N)c(C#N)c34)c(C(F)(F)F)cc12)[C@H]1C[C@@H](C)N(C(C)=O)C1` [Compound 446] was tested. Which IC50 ([1]; KRAS WT-GppNHp/RAF1 RBD HTRF) did it give?
A: Its IC50 is 100 to 1000 nM.

Q: And the IC50 (SW620 cells (KRAS G12V))?
A: Its IC50 is under 100 nM.

Q: And the IC50 ([2]; KRAS G12D-GppNHp/RAF1 RBD HTRF)?
A: The IC50 was under 100 nM.

Q: What about the IC50 (GP2d cells (KRAS G12D)) of the same compound?
A: Its IC50 is under 100 nM.

Q: And the IC50 ([3]; KRAS G12R-GppNHp/RAF1 RBD HTRF)?
A: Its IC50 is 100 to 1000 nM.

Q: What about the IC50 ([4]; KRAS G12V-GppNHp/RAF1 RBD HTRF) of the same compound?
A: Its IC50 is 100 to 1000 nM.

Q: With `CCN(c1nc(OC[C@@]23CCCN2C[C@H](F)C3)nc2c(F)c(-c3ccc(F)c4sc(N)c(C#N)c34)c(C(F)(F)F)cc12)[C@H]1C[C@@H](C)N(C(=O)OC)C1` (atropisomer, axis not shown) [Compound 557] as the compound, how does the IC50 ([1]; KRAS WT-GppNHp/RAF1 RBD HTRF) read?
A: The IC50 was 100 to 1000 nM.

Q: And the IC50 (SW620 cells (KRAS G12V))?
A: The IC50 was under 100 nM.

Q: What about the IC50 ([2]; KRAS G12D-GppNHp/RAF1 RBD HTRF) of the same compound?
A: The IC50 was under 100 nM.

Q: And the IC50 (GP2d cells (KRAS G12D))?
A: The IC50 was under 100 nM.

Q: What about the IC50 ([3]; KRAS G12R-GppNHp/RAF1 RBD HTRF) of the same compound?
A: The IC50 was under 100 nM.

Q: And the IC50 ([4]; KRAS G12V-GppNHp/RAF1 RBD HTRF)?
A: The IC50 was 100 to 1000 nM.

Q: What does the source list for `CCN(c1nc(OC[C@@]23CCCN2C[C@H](F)C3)nc2c(F)c(-c3ccc(F)c4sc(N)c(C#N)c34)c(C(F)(F)F)cc12)[C@H]1CCN(C(=O)c2ccsn2)C1` (atropisomer, axis not shown) [Compound 722]?
A: IC50 [1, 5]: < 100 nM; IC50 (SW620 cells (KRAS G12V); class symbols): < 100 nM; IC50 [2, 6]: < 100 nM; IC50 (GP2d cells (KRAS G12D); class symbols): < 100 nM; IC50 [3, 7]: < 100 nM; IC50 [4, 8]: < 100 nM
